# In publication PMC6582940 (Molecular pharmaceutics, 2018):
# Where a name gives a salt, the structure may show the parent alone.
# Target: ABCB1 (Homo sapiens, UniProt P08183)
# Assay: competition of […]IAAP photoaffinity labeling in ABCB1 membranes
# Type: binding
# ABCB1, sequence (P08183 whole entry): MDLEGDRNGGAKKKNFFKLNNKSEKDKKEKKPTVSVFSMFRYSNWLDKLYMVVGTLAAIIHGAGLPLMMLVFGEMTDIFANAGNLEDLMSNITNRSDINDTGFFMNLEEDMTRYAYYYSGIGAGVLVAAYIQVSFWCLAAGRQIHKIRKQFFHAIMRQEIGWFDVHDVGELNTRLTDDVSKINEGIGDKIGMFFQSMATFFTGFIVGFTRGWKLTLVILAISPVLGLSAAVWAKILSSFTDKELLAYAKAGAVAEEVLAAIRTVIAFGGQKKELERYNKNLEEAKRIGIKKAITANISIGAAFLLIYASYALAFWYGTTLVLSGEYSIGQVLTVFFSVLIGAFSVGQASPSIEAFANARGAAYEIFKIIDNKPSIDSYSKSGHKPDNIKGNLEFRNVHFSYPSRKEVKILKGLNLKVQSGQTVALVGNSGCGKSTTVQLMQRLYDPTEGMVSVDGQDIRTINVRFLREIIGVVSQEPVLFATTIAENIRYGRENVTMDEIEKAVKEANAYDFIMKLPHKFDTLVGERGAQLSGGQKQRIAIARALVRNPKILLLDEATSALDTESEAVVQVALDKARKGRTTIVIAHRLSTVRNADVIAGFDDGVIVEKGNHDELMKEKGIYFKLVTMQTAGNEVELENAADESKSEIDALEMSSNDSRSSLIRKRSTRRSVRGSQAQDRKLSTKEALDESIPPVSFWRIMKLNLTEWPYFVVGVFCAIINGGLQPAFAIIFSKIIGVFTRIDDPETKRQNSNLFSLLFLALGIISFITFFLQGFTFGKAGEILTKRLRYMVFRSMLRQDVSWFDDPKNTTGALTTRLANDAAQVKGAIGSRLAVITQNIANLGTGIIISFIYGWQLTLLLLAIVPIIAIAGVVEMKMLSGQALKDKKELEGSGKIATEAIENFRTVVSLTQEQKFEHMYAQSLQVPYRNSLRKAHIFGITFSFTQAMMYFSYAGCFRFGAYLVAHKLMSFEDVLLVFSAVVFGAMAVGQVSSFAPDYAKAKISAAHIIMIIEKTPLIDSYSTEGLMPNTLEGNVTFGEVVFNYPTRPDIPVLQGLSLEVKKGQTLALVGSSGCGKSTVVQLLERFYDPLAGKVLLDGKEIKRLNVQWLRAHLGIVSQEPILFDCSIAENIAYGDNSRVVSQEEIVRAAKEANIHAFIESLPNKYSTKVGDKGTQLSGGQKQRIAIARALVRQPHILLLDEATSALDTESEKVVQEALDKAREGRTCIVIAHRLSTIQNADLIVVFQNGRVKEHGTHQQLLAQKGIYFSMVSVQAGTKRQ
structure (smiles),measurement,value
"COc1ccc(CCC2c3cc(OCc4ccccc4)c(OC)cc3CCN2C)cc1OCc1ccccc1 (racemic) [isoquinoline 2, (±)-7-benzyloxy-1-(3-benzyloxy-4-methoxyphenethyl)-1,2,3,4-tetrahydro-6-methoxy-2-methylisoquinoline oxalate]",IC50,63 ± 12 nM
